Assay results reported in ChEMBL document CHEMBL1143875, “Synthesis and structure-activity relationships of thiadiazole-derivatives as potent and orally active peroxisome proliferator-activated receptors alpha/delta dual agonists” (Bioorg Med Chem, 2008).
Calls of active or inactive are those of the source. The calls are words filed in the database; no cut-off is given here.

Legend:
[1] = Induction of CPT1 gene expression in human skeletal muscle cells at 1 nM by RT-PCR; assay type: functional
[2] = Induction of Pa9 gene expression in human skeletal muscle cells at 1 nM by RT-PCR; assay type: functional
Rattus norvegicus = experiment: Decrease in triglyceride level in po dosed hypercholesterolemic Sprague-Dawley rat serum after 8 days; assay type: functional, organism-based
Mus musculus [3] = experiment: Decrease in non esterified free fatty acid level i in po dosed hApoA1 transgenic mouse after 7 days; assay type: functional, organism-based
[4] = AUC in Beagle dog at 3 mg/kg administered as multiple dose after 7 days; assay type: ADME, organism-based, Canis lupus familiaris; set-up: dose 3 mg/kg; details: plasma
Mus musculus [5] = experiment: […] effect of ob/ob C57BL/6J-leptin deficient obese mouse assessed as reduction in body weight at 0.1 to 3 mg/kg, po after 11 days; assay type: functional, organism-based
[6] = Cmax in ob/ob C57BL/6J-leptin deficient obese mouse at 0.3 mg/kg administered as multiple dose after 11 days; assay type: ADME, organism-based; set-up: dose 0.3 mg/kg; details: in vivo
Canis familiaris = experiment: Antihyperlipidemic activity in Beagle dog serum assessed as reduction in triglyceride level at 0.3 to 10 mg/kg, po/day after 7 days; assay type: functional, organism-based; details: Canis lupus familiaris
[7] = Cmax in Beagle dog at 1 mg/kg administered as multiple dose after 7 days; assay type: ADME, organism-based, Canis lupus familiaris; set-up: dose 1 mg/kg; details: in vivo

AUC at 168 h [4]: 24100 ng·h/mL
Cmax [6]: 1840 ng/mL
Cmax [7]: 1530 ng/mL
Compound: Cc1cc(SCc2nc(-c3ccc(Cl)c(Cl)c3)ns2)ccc1OC(C)(C)C(=O)O
Fold change [1]: 3
Fold change [2]: 3.8
Activity (Rattus norvegicus): Dose-dependent effect
Activity (Mus musculus [3]): Active
Activity (Mus musculus [5]): Active
Activity (Canis familiaris): Dose-dependent effect
